Data from patent US20240083903A1, “ARYL ETHER COMPOUNDS AS TEAD MODULATORS” (Merck Sharp& Dohme LLC, priority 2021, published 2024).

System: TEAD Reporter-MCF7 cell line
Assay: YAP/TEAD cellular activity assay: inhibition of TEAD-Luc activity in TEAD Reporter-MCF7 cell line
Format: cell-based, human
Details: Homo sapiens, MCF7, 24 h, TEAD Reporter-MCF7 cells, 24 hours incubation with compound, luciferase readout
Protocol: YAP/TEAD Cellular Activity Assay
Quantitation of Compound Potency on the Inhibition of TEAD-Luc Activity in TEAD Reporter-MCF7 Cell Line.
The TEAD Reporter-MCF7 cell line containing the firefly luciferase gene under the control of TEAD responsive elements stably integrated into the human breast cancer cell line was purchased from BPS Bioscience (Cat #60618). The cells were cultured with complete culture medium ([…], 1 mM sodium pyruvate, 10% fetal bovine serum, 10 ng/mL insulin and 400 ug/mL G418 sulfate) prior to the assay. For the assay, the cells were harvested, resuspended in the complete culture medium without G418, and seeded into white solid bottom 384-well cell culture microplates in 25 uL with 10,000 cells per well. The plates were incubated at 37° C. in a CO2 incubator for 20-24 hours and the compounds were then transferred from Echo LDV plates directly into the 384-well white tissue culture plates with an Echo. The plates were incubated at 37° C. in a CO2 incubator for 24 hours and equal volume of ONE-Glo™ EX Luciferase reagent (Promega, Cat #E8150) was added. After mixing on a shaker at room temperature for 10 minutes, the luciferase activity was measured with an Envision. The percentage inhibition and EC50 values of compounds were calculated with Spotfire.
Required Materials • 1. TEAD reporter-MCF-7 Cells (BPS Bioscience, #60618) • 2. Complete Cell Culture Medium (without selection antibiotics) • EMEM 89% (ATCC, #30-2003) • FBS 10% (Hyclone, #SH30088.03) • 1% Non essential amino acids (Gibco, • 1 mM sodium pyruvate (Gibco, • Pen/Strep, 1% (Gibco, #15140-122) • 10 ng/mL insulin (Sigma, #10516) • 3. Complete Cell Culture Medium (with selection antibiotics) • EMEM 89% (ATCC, #30-2003) • F1% Non essential amino acids (Gibco, • 1 mM sodium pyruvate (Gibco, • BS 10% (Hyclone, #SH30088.03) • 10 ng/mL insulin (Sigma, #10516) • 400 ug/mL G418 sulfate (Agilent, #200049-21) • 4. Miscellaneous tissue culture equipment and reagents. • 5. White solid 384-well tissue culture plate (Greiner, Cat #781080) • 6. One Glo EX luciferase assay system (Promega, #E8150)
The following table tabulates the biological data disclosed for the current invention. The biological data was collected using the methodology described above. For each compound, TEAD-Luc EC50 values are listed in nanomolar (nM) concentration units.

EC50	Compound
335 nM	CNS(=O)(=O)c1ccc(Oc2ccc(C(F)(F)F)cc2)c(-c2cnc3ncccn23)c1 [1-26, 3-(imidazo[1,2-a]pyrimidin-3-yl)-N-methyl-4-[4-(trifluoromethyl)phenoxy]benzene-1-sulfonamide]
206 nM	CNS(=O)(=O)c1ccc(Oc2ccc(F)c(F)c2)c(-c2cn3c(n2)CCC3)c1 [4-11, 4-(3,4-difluorophenoxy)-3-(6,7-dihydro-5H-pyrrolo[1,2-a]imidazol-2-yl)-N-methylbenzene-1-sulfonamide]
50.5 nM	CNS(=O)(=O)c1ccc(Oc2ccc(C(F)(F)F)cc2)c(-c2ccc3cc(OC)nnc3c2)c1 [2-2, 3-(3-Methoxycinnolin-7-yl)-N-methyl-4-[4-(trifluoromethyl)phenoxy]benzene-1-sulfonamide]
606 nM	CNS(=O)(=O)c1ccc(Oc2ccc(C(F)(F)F)cc2)c(-c2cnc3c(c2)OCCN3C)c1 [2-18, N-methyl-3-(4-methyl-3,4-dihydro-2H-pyrido[3,2-b][1,4]oxazin-7-yl)-4-[4-(trifluoromethyl)phenoxy]benzene-1-sulfonamide]
9280 nM	CNS(=O)(=O)c1ccc(Oc2ccc(C(F)(F)F)cc2)c(-c2cnc3c(N)cccn23)c1 [1-21, 3-(8-aminoimidazo[1,2-a]pyridin-3-yl)-N-methyl-4-[4-(trifluoromethyl)phenoxy]benzene-1-sulfonamide]
447 nM	CNS(=O)(=O)c1ccc(Oc2ccc(SC(F)(F)F)cc2)c(-c2cnn3c2CCC3)c1 [3-1, 3-(5,6-Dihydro-4H-pyrrolo[1,2-b]pyrazol-3-yl)-N-methyl-4-(4-((trifluoromethyl)thio)phenoxy)benzenesulfonamide]
68.5 nM	CNS(=O)(=O)c1ccc(Oc2ccc(C(F)(F)F)cc2)c(-n2cc3c(n2)CCC3)c1 [6-2, 3-(5,6-dihydrocyclopenta[c]pyrazol-2(4H)-yl)-N-methyl-4-[4-(trifluoromethyl)phenoxy]benzene-1-sulfonamide]
9140 nM	CNS(=O)(=O)c1ccc(Oc2cc(C(F)(F)F)cc(C(F)(F)F)c2)c(-c2cnn3c2CCC3)c1 [3-2, 4-[3,5-bis(trifluoromethyl)phenoxy]-3-(5,6-dihydro-4H-pyrrolo[1,2-b]pyrazol-3-yl)-N-methylbenzene-1-sulfonamide]
540 nM	CNS(=O)(=O)c1ccc(Oc2ccc(C(F)(F)F)cc2)c(-c2nc3cnccn3n2)c1 [1-15, N-methyl-3-([1,2,4]triazolo[1,5-a]pyrazin-2-yl)-4-[4-(trifluoromethyl)phenoxy]benzene-1-sulfonamide]
4020 nM	CNS(=O)(=O)c1ccc(Oc2ccc(C(F)(F)F)cc2)c(-c2cc3c(s2)CCNC3)c1 [1-16, N-methyl-3-(4,5,6,7-tetrahydrothieno[3,2-c]pyridin-2-yl)-4-[4-(trifluoromethyl)phenoxy]benzene-1-sulfonamide]
5440 nM	CNS(=O)(=O)c1ccc(Oc2ccc(C(F)(F)F)cc2)c(-c2nc3cc(OC)ccc3[nH]2)c1 [1-12, 3-(5-methoxy-1H-benzimidazol-2-yl)-N-methy1-4-[4-(trifluoromethyl)phenoxy]benzene-1-sulfonamide]
1820 nM	CNS(=O)(=O)c1ccc(Oc2ccc(C(F)(F)F)cc2)c(-c2nc(C)n3c2COCC3)c1 [1-22, N-methyl-3-(3-methyl-5,6-dihydro-8H-imidazo[5,1-c][1,4]oxazin-1-yl)-4-[4-(trifluoromethyl)phenoxy]benzene-1-sulfonamide]
238 nM	CNS(=O)(=O)c1ccc(Oc2ccc(C(F)(F)F)cc2)c(-c2nc3cccnc3s2)c1 [1-11, N-methyl-3-([1,3]thiazolo[5,4-b]pyridin-2-yl)-4-[4-(trifluoromethyl)phenoxy]benzene-1-sulfonamide]
590 nM	CNS(=O)(=O)c1ccc(Oc2ccc(C(F)(F)F)cc2)c(-c2cnn3c2OCC(C)C3)c1 (centres unmarked) [2-17, N-methyl-3-(6-methyl-6,7-dihydro-5H-pyrazolo[5,1-b][1,3]oxazin-3-yl)-4-[4-(trifluoromethyl)phenoxy]benzene-1-sulfonamide]
